From patent US20260130933A1, “PHARMACEUTICAL COMPOSITION FOR PREVENTION OR TREATMENT OF NEPHROPATHY AND/OR DIABETES MELLITUS, COMPRISING ENAVOGLIFLOZIN” (DAEWOONG PHARMACEUTICAL CO., LTD., priority 2022, published 2026)

Test: Example 2: phase 3 trial, enavogliflozin 0.3 mg vs dapagliflozin 10 mg once a day for 24 weeks added to metformin in patients with type 2 diabetes (same efficacy, exploratory and safety endpoints)
Type: in vivo, human
Description: Subjects who met the inclusion/exclusion criteria were administered a placebo of the clinical trial drug under single-blind (subject blinding) conditions during a 2-week run-in period while continuing to receive metformin. […] The randomized subjects were administered two tablets of the clinical trial drug for each administration group once a day, and then visited the institution at weeks 6, 12, 18, and 24 during the 24-week administration period to conduct efficacy and safety evaluations.
• 1. Change in HbA1c at week 24 after administration of clinical trial drug compared to Visit 2 (randomization)
• 1. Change in HbA1c at each time point of weeks 6, 12, and 18 after administration of clinical trial drug compared to Visit 2 (randomization) • 2. Change in FPG at each time point of weeks 6, 12, 18, and 24 after administration of clinical trial drug compared to Visit 2 (randomization) • 3. Proportion of subjects achieving HbA1c<7% at each time point of weeks 6, 12, 18, and 24 after administration of clinical trial drug • 4. Proportion of subjects achieving HbA1c<6.5% at each time point of weeks 6, 12, 18, and 24 after administration of clinical trial drug • 5. Proportion of subjects achieving therapeutic response (HbA1c change (HbA1c at Visit 2-HbA1c at each evaluation time point)>0.5% or HbA1c<7% at each evaluation time point compared to Visit 2 (randomization)) at each time point of weeks 6, 12, 18 and 24 after administration of clinical trial drug
• 1. Change in fasting c-peptide at each time point of weeks 6, 12, 18, and 24 after administration of clinical trial drug compared to Visit 2 (randomization) • 2. Change in body weight at each time point of weeks 6, 12, 18, and 24 after administration of clinical trial drug compared to Visit 2 (randomization) • 3. Change in fasting lipid concentration (total cholesterol, LDL-C, HDL-C, and triglycerides) at each time point of weeks 6, 12, 18, and 24 after administration of clinical trial drug compared to Visit 2 (randomization) • 4. Changes in systolic or diastolic blood pressure at each time point of weeks 6, 12, 18, and 24 after administration of clinical trial drug compared to Visit 2 (randomization) • 5. Changes in β-cell function and insulin resistance measured by HOMA-β and HOMA-IR at each time point of weeks 6, 12, 18, and 24 after administration of clinical trial drug compared to Visit 2 (randomization) • 6. Changes in renal function-related indicators (UACR, UGCR) measured by UACR at each time point of weeks 6, 12, 18, and 24 after administration of clinical trial drug compared to Visit 2 (randomization) • 7. Changes in obesity-related indicators (adiponectin, leptin) at each time point of weeks 6, 12, 18, and 24 after administration of clinical trial drug compared to Visit 2 (randomization)

[1] = Week 18, mPPS1, enavogliflozin minus dapagliflozin
[2] = Week 18, mPPS2, enavogliflozin minus dapagliflozin
[3] = Week 24, PPS, enavogliflozin minus dapagliflozin

Compound: OC[C@H]1O[C@@H](c2cc(Cc3ccc(C4CC4)cc3)c(Cl)c3c2CCO3)[C@H](O)[C@@H](O)[C@@H]1O [Enavogliflozin, (2S,3R,4R,5S,6R)-2-(7-chloro-6 (4-cyclopropylbenzyl)-2,3-dihydrobenzofuran-4-yl)-6-(hydroxymethyl)tetrahydro-2H-pyran-3,4,5-triol]
- LDL-C, Mean (SD) (Week 18, mPPS1): 85.75(29.78) mg/dL
- LDL-C, Median (Week 18, mPPS1): 77.50 mg/dL
- Triglycerides change from baseline, ANCOVA LS mean (SE) (Week 18, mPPS1): −4.99(5.99) mg/dL
- Triglycerides change from baseline, Mean (SD) (Week 18, mPPS1): −2.70(78.86) mg/dL
- Triglycerides change from baseline, Median (Week 18, mPPS1): -2.50 mg/dL
- Triglycerides, Mean (SD) (Week 18, mPPS1): 118.10(55.93) mg/dL
- Triglycerides, Median (Week 18, mPPS1): 108.00 mg/dL
- HDL-C change from baseline, LS mean difference [1]: -0.62 mg/dL
- LDL-C change from baseline, LS mean difference [1]: -1.15 mg/dL
- triglycerides change from baseline, LS mean difference [1]: -6.87 mg/dL
- Diastolic blood pressure change from baseline, ANCOVA LS mean (SE) (Week 18, mPPS2): −4.80 mmHg
- Diastolic blood pressure change from baseline, Mean (SD) (Week 18, mPPS2): −5.05 mmHg
- Diastolic blood pressure change from baseline, Median (Week 18, mPPS2): −5.00 mmHg
- Diastolic blood pressure, Mean (SD) (Week 18, mPPS2): 71.85 mmHg
- Diastolic blood pressure, Median (Week 18, mPPS2): 71.00 mmHg
- Systolic blood pressure change from baseline, ANCOVA LS mean (SE) (Week 18, mPPS2): −6.69(1.12) mmHg
- Systolic blood pressure change from baseline, Mean (SD) (Week 18, mPPS2): −7.04(10.51) mmHg
- Systolic blood pressure change from baseline, Median (Week 18, mPPS2): −9.00 mmHg
- Systolic blood pressure, Mean (SD) (Week 18, mPPS2): 122.70(12.89) mmHg
- Systolic blood pressure, Median (Week 18, mPPS2): 122.00 mmHg
- diastolic blood pressure change from baseline, LS mean difference [2]: −0.70 mmHg
- systolic blood pressure change from baseline, LS mean difference [2]: −0.72 mmHg
- Adiponectin change from baseline, ANCOVA LS mean (SE) (Week 24, PPS): 1.67 µg/mL
- Adiponectin change from baseline, Mean (SD) (Week 24, PPS): 1.72 µg/mL
- Adiponectin change from baseline, Median (Week 24, PPS): 1.21 µg/mL
- Adiponectin, Mean (SD) (Week 24, PPS): 8.68 µg/mL
- Adiponectin, Median (Week 24, PPS): 7.64 µg/mL
- HOMA-IR change from baseline, ANCOVA LS mean (SE) (Week 24, PPS): −1.85
- HOMA-IR change from baseline, Mean (SD) (Week 24, PPS): −1.69
- HOMA-IR change from baseline, Median (Week 24, PPS): −1.06
- HOMA-IR, Mean (SD) (Week 24, PPS): 1.76
- HOMA-IR, Median (Week 24, PPS): 1.48
- HOMA-β change from baseline, ANCOVA LS mean (SE) (Week 24, PPS): 6.94
- HOMA-β change from baseline, Mean (SD) (Week 24, PPS): 6.80
- HOMA-β change from baseline, Median (Week 24, PPS): 4.00
- HOMA-β, Mean (SD) (Week 24, PPS): 52.32
- HOMA-β, Median (Week 24, PPS): 42.00
- Leptin change from baseline, ANCOVA LS mean (SE) (Week 24, PPS): -2.40 ng/mL
- Leptin change from baseline, Mean (SD) (Week 24, PPS): -2.53 ng/mL
- Leptin change from baseline, Median (Week 24, PPS): -1.77 ng/mL
- Leptin, Mean (SD) (Week 24, PPS): 9.68 ng/mL
- Leptin, Median (Week 24, PPS): 7.45 ng/mL
- UACR change from baseline, ANCOVA LS mean (SE) (Week 24, PPS): -24.29 g/kg
- UACR change from baseline, Mean (SD) (Week 24, PPS): -18270 mg/kg
- UACR change from baseline, Median (Week 24, PPS): -1.10 g/kg
- UACR, Mean (SD) (Week 24, PPS): 19930 mg/kg
- UACR, Median (Week 24, PPS): 10.20 g/kg
- UGCR change from baseline, ANCOVA LS mean (SE) (Week 24, PPS): 60.48 mg/mg
- UGCR change from baseline, Mean (SD) (Week 24, PPS): 58.90 mg/mg
- UGCR change from baseline, Median (Week 24, PPS): 56.43 mg/mg
- UGCR, Mean (SD) (Week 24, PPS): 60.43 mg/mg
- UGCR, Median (Week 24, PPS): 57.88 mg/mg
- HOMA-IR change from baseline, LS mean difference [3]: −0.53
- HOMA-β change from baseline, LS mean difference [3]: −4.99
- UACR change from baseline, LS mean difference [3]: -6.93 g/kg
- UGCR change from baseline, LS mean difference [3]: 15.54 mg/mg
- leptin change from baseline, LS mean difference [3]: -1.12 ng/mL
- HDL-C change from baseline, ANCOVA LS mean (SE) (Week 24, mPPS1): 3.06(0.64) mg/dL
- HDL-C change from baseline, Mean (SD) (Week 24, mPPS1): 2.75(6.70) mg/dL
- HDL-C change from baseline, Median (Week 24, mPPS1): 3.00 mg/dL
- HDL-C, Mean (SD) (Week 24, mPPS1): 53.69(10.72) mg/dL
- HDL-C, Median (Week 24, mPPS1): 53.00 mg/dL
- LDL-C change from baseline, ANCOVA LS mean (SE) (Week 24, mPPS1): 1.64(1.92) mg/dL
- LDL-C change from baseline, Mean (SD) (Week 24, mPPS1): 0.88(17.04) mg/dL
- LDL-C change from baseline, Median (Week 24, mPPS1): 3.00 mg/dL
- LDL-C, Mean (SD) (Week 24, mPPS1): 87.40(29.52) mg/dL
- LDL-C, Median (Week 24, mPPS1): 84.00 mg/dL
- Triglycerides change from baseline, ANCOVA LS mean (SE) (Week 24, mPPS1): −5.07(5.14) mg/dL
- Triglycerides change from baseline, Mean (SD) (Week 24, mPPS1): −2.47(76.88) mg/dL
- Triglycerides change from baseline, Median (Week 24, mPPS1): 0.00 mg/dL
